Results: patent US20240409585A1, “MACROCYCLIC IMMUNOMODULATORS” (priority 2021, published 2024)
Bridge positions count the residues as written; N and C are the ends. Square brackets hold non-standard residues; d marks the D form. Peptide text beside a SMILES is read from it. * marks the point of attachment. Phe(4-COOH) = N[C@@H](Cc1ccc(C(=O)O)cc1)C(=O)O; Bip = N[C@@H](Cc1ccc(-c2ccccc2)cc1)C(=O)O; Phe(3-CN) = N#Cc1cccc(C[C@H](N)C(=O)O)c1; Phe(3-Cl) = N[C@@H](Cc1cccc(Cl)c1)C(=O)O; Phe(4-CN) = N#Cc1ccc(C[C@H](N)C(=O)O)cc1; Phe(3-Me) = Cc1cccc(C[C@H](N)C(=O)O)c1; Cit = NC(=O)NCCC[C@H](N)C(=O)O; Carboxymethyl = O=C(O)C*; NMeA = CN[C@@H](C)C(=O)O; Dab = NCC[C@H](N)C(=O)O; Dap = NC[C@H](N)C(=O)O

Target: T1, PE-labeled human PD-L1-Ig binding to Jurkat cell line over-expressing human PD-1 (Jurkat-PD-1) (Homo sapiens, UniProt Q15116)
T1 construct: expressed in transfected cells; host or cells: Jurkat
Experiment: Jurkat-PD-1 Cell Binding High-Content Screening Assay (CBA): Method 1
Details: Jurkat-hPD-1 cells, PE-labeled PD-L1-Ig 20 nM final; read-out: Jurkat HPDL1 PD1 IC50 (uM) (Method 1)

T1 sequence (Q15116 25-288): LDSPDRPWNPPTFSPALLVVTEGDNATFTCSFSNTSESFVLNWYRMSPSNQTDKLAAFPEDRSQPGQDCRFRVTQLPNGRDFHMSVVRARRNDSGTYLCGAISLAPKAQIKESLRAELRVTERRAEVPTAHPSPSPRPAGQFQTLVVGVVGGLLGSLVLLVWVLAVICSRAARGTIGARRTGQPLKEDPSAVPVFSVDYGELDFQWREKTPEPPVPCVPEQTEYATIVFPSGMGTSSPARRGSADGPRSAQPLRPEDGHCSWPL

IC50 [µM] | Compound
0.05 | CC(C)C[C@@H]1NC(=O)[C@H](CCN)NC(=O)[C@@H](CC(C)C)NC(=O)[C@H](C)N(C)C(=O)[C@H](C(C)C)NC(=O)[C@H](Cc2ccc(-c3ccccc3)cc2)NC(=O)[C@H](C(C)C)NC(=O)[C@H](Cc2c[nH]c3ccccc23)NC(=O)[C@H](CC(=O)O)NC(=O)[C@H](Cc2ccc(C#N)cc2)NC(=O)[C@H](CN)NC(=O)CSC[C@@H](C(=O)N[C@@H](C)C(N)=O)NC(=O)[C@H]([C@@H](C)O)NC(=O)[C@H](C(C)C)NC1=O [Compound 1435] ({CH2CO}-[Dap][Phe(4-CN)]DWV[Bip]V[NMeA][dL][Dab]LVTCA-NH2; thioether N-14)
0.06 | CC(C)C[C@@H]1NC(=O)[C@H](CCN)NC(=O)[C@@H](CC(C)C)NC(=O)[C@H](C)N(C)C(=O)[C@H](C(C)C)NC(=O)[C@H](Cc2ccc(-c3ccccc3)cc2)NC(=O)[C@H](C(C)C)NC(=O)[C@H](Cc2c[nH]c3ccccc23)NC(=O)[C@H](CC(=O)O)NC(=O)[C@H](Cc2cccc(C#N)c2)NC(=O)[C@H](CN)NC(=O)CSC[C@@H](C(=O)N[C@@H](C)C(N)=O)NC(=O)[C@H]([C@@H](C)O)NC(=O)[C@H](C(C)C)NC1=O [Compound 1436] ({CH2CO}-[Dap][Phe(3-CN)]DWV[Bip]V[NMeA][dL][Dab]LVTCA-NH2; thioether N-14)
0.02 | Cc1cccc(C[C@@H]2NC(=O)[C@H](CC(=O)O)NC(=O)[C@H](Cc3ccc(OCC(=O)O)cc3)NC(=O)[C@H](CN)NC(=O)CSC[C@@H](C(=O)N[C@@H](C)C(N)=O)NC(=O)[C@H]([C@@H](C)O)NC(=O)[C@H](C(C)C)NC(=O)[C@H](CC(C)C)NC(=O)[C@H](CCN)NC(=O)[C@@H](CC(C)C)NC(=O)[C@H](C)N(C)C(=O)[C@H](CCCNC(N)=O)NC(=O)[C@H](Cc3ccc(-c4ccccc4)cc3)NC(=O)[C@H](C(C)C)NC2=O)c1 [Compound 1437] ({CH2CO}-[Dap]Y(Carboxymethyl)D[Phe(3-Me)]V[Bip][Cit][NMeA][dL][Dab]LVTCA-NH2; thioether N-14)
0.07 | CC(C)C[C@@H]1NC(=O)[C@H](CCN)NC(=O)[C@@H](CC(C)C)NC(=O)[C@H](C)N(C)C(=O)[C@H](Cc2cnc[nH]2)NC(=O)[C@H](Cc2ccc(-c3ccccc3)cc2)NC(=O)[C@H](C(C)C)NC(=O)[C@H](Cc2c[nH]c3ccccc23)NC(=O)[C@H](CC(=O)O)NC(=O)[C@H](Cc2ccc(OCC(=O)O)cc2)NC(=O)[C@H](CN)NC(=O)CSC[C@@H](C(=O)N[C@@H](C)C(N)=O)NC(=O)[C@H]([C@@H](C)O)NC(=O)[C@H](C(C)C)NC1=O [Compound 1438] ({CH2CO}-[Dap]Y(Carboxymethyl)DWV[Bip]H[NMeA][dL][Dab]LVTCA-NH2; thioether N-14)
0.06 | CC(C)C[C@@H]1NC(=O)[C@H](CCN)NC(=O)[C@@H](CC(C)C)NC(=O)[C@H](C)N(C)C(=O)[C@H](Cc2cnc[nH]2)NC(=O)[C@H](Cc2ccc(-c3ccccc3)cc2)NC(=O)[C@H](C(C)C)NC(=O)[C@H](Cc2c[nH]c3ccccc23)NC(=O)[C@H](CC(=O)O)NC(=O)[C@H](Cc2ccc(C(=O)O)cc2)NC(=O)[C@H](CN)NC(=O)CSC[C@@H](C(=O)N[C@@H](C)C(N)=O)NC(=O)[C@H]([C@@H](C)O)NC(=O)[C@H](C(C)C)NC1=O [Compound 1439] ({CH2CO}-[Dap][Phe(4-COOH)]DWV[Bip]H[NMeA][dL][Dab]LVTCA-NH2; thioether N-14)
0.19 | CC(C)C[C@@H]1NC(=O)[C@H](CCN)NC(=O)[C@@H](CC(C)C)NC(=O)[C@H](C)N(C)C(=O)[C@H](Cc2cnc[nH]2)NC(=O)[C@H](Cc2ccc(-c3ccccc3)cc2)NC(=O)[C@H](C(C)C)NC(=O)[C@H](Cc2c[nH]c3ccccc23)NC(=O)[C@H](CC(=O)O)NC(=O)[C@H](Cc2cccc(Cl)c2)NC(=O)[C@H](CN)NC(=O)CSC[C@@H](C(=O)N[C@@H](C)C(N)=O)NC(=O)[C@H]([C@@H](C)O)NC(=O)[C@H](C(C)C)NC1=O [Compound 1440] ({CH2CO}-[Dap][Phe(3-Cl)]DWV[Bip]H[NMeA][dL][Dab]LVTCA-NH2; thioether N-14)
